≈ marks a conversion by molar mass, not a printed value. Like-named read-outs stand apart in the source and are kept apart here.
Tests used:
Type in all cases: cell-based
Bacteria = experiment: Bacterial growth with or without resazurin during incubation, BacTiter-Glo luminescence; details: 4 hours at 35° C., versus resazurin added after incubation
Description: FIG. 1 illustrates growth luminescence ratios post-incubation of microogranisms, where resazurin was introduced to one group of microorganisms before the initial incubation period and the other group was introduced to resazurin after the initial incubation period.
Bacteria were inoculated into 96-well microplates comprise cation-adjusted Mueller Hinton broth in the presence and absence of resazurin (alamarBlue®) and incubated at 35° C. for 4 hours. For wells that were not incubated with resazurin, the growth indicator was added immediately after the 4-hour incubation. BacTiter-Glo reagent (Promega, Madison, WI) was added to all wells and luminescence was measured. […] Thus, it can be advantageous to remove growth indicator from test wells during incubation.

P. aeruginosa = experiment: Rapid AST by surface binding of europium probe, time resolved fluorescence; details: Pseudomonas aeruginosa
Description: The x-axis of each graph denotes the concentrations of antimicrobial Amikacin (AMK) in micrograms/milliliter, and the y-axis denotes fluorescence from binding to bacteria surface. Growth check data measured by optical density (Absorbance at 600 nm) of the bacterial culture is denoted for each strain.
AST was performed by surface binding of probe followed by time resolved fluorescence. The P. aeruginosa strains were incubated at 35° C. in shaking conditions for 4 hours for attaining growth, and growth check was performed by measuring absorbance of the culture at 600 nm after 4 hours of growth.

E. coli strains = experiment: CLSI overnight reference method, broth microdilution MIC; details: unit assumed
[1] = E. coli strain Clinical Sample 1
[2] = E. coli strain Clinical Sample 2
[3] = E. coli strain Clinical Sample 4
[4] = E. coli strain Clinical Sample 5
[5] = E. coli strain Clinical Sample 6
[6] = E. coli strain Clinical Sample 7
[7] = E. coli strain Clinical Sample 8
[8] = E. coli strain Clinical Sample 9
[9] = E. coli strain Clinical Sample 10
[10] = E. coli strain Clinical Sample 11
[11] = E. coli strain Clinical Sample 12
[12] = E. coli strain Clinical Sample 13

| MIC (CLSI Ref) (E. coli strains; E. coli strain BEI 4.097) [µg/mL] | MIC (CLSI Ref) (E. coli strains; E. coli strain CDC Carba36) [µg/mL] | MIC (CLSI Ref) (E. coli strains; [1]) [µg/mL] | MIC (CLSI Ref) (E. coli strains; [2]) [µg/mL] | MIC (CLSI Ref) (E. coli strains; [3]) [µg/mL] | MIC (CLSI Ref) (E. coli strains; [4]) [µg/mL] | MIC (CLSI Ref) (E. coli strains; [5]) [µg/mL] | MIC (CLSI Ref) (E. coli strains; [6]) [µg/mL] | MIC (CLSI Ref) (E. coli strains; [7]) [µg/mL] | MIC (CLSI Ref) (E. coli strains; [8]) [µg/mL] | MIC (CLSI Ref) (E. coli strains; [9]) [µg/mL] | MIC (CLSI Ref) (E. coli strains; [10]) [µg/mL] | MIC (CLSI Ref) (E. coli strains; [11]) [µg/mL] | MIC (CLSI Ref) (E. coli strains; [12]) [µg/mL] | Compound | Effect of resazurin present during incubation on viable bacteria (BacTiter-Glo luminescence) (Bacteria) | MIC (P. aeruginosa; P. aeruginosa Strain 1, growth check value 2.18, 4 hours at 35° C., read-out: MIC) [µg/mL] | MIC (P. aeruginosa; P. aeruginosa Strain 2, no reliable MIC at growth checkpoint value 1.13, read-out: expected MIC) [µg/mL] |
| --- | --- | --- | --- | --- | --- | --- | --- | --- | --- | --- | --- | --- | --- | --- | --- | --- | --- |
| – | – | – | – | – | – | – | – | – | – | – | – | – | – | O=c1ccc2[n+]([O-])c3ccc(O)cc3oc-2c1 [resazurin, 7-hydroxy-10-oxidophenoxazin-10-ium-3-one] | less luminescent signal was observed | – | – |
| 4 (≈ 6.83 µM) | 4 (≈ 6.83 µM) | 4 (≈ 6.83 µM) | 4 (≈ 6.83 µM) | 4 (≈ 6.83 µM) | 4 (≈ 6.83 µM) | 4 (≈ 6.83 µM) | 2 (≈ 3.42 µM) | 4 (≈ 6.83 µM) | 4 (≈ 6.83 µM) | 8 (≈ 13.7 µM) | 4 (≈ 6.83 µM) | 4 (≈ 6.83 µM) | 4 (≈ 6.83 µM) | NCC[C@H](O)C(=O)N[C@@H]1C[C@H](N)[C@@H](O[C@H]2O[C@H](CN)[C@@H](O)[C@H](O)[C@H]2O)[C@H](O)[C@H]1O[C@H]1O[C@H](CO)[C@@H](O)[C@H](N)[C@H]1O [AMK, Amikacin] | – | 8 (≈ 13.7 µM) | 8 (≈ 13.7 µM) |
| 1 (≈ 2.14 µM) | 1 (≈ 2.14 µM) | 2 (≈ 4.28 µM) | 1 (≈ 2.14 µM) | 1 (≈ 2.14 µM) | 1 (≈ 2.14 µM) | 1 (≈ 2.14 µM) | 1 (≈ 2.14 µM) | 2 (≈ 4.28 µM) | 4 (≈ 8.56 µM) | 16 (≈ 34.2 µM) | 1 (≈ 2.14 µM) | 1 (≈ 2.14 µM) | 1 (≈ 2.14 µM) | NC[C@H]1O[C@H](O[C@H]2[C@H](O)[C@@H](O[C@H]3O[C@H](CO)[C@@H](O)[C@H](N)[C@H]3O)[C@H](N)C[C@@H]2N)[C@H](N)C[C@@H]1O [TOB, Tobramycin] | – | – | – |

| Compound | MIC (CLSI Ref) (E. coli strains; E. coli strain BEI 4.097) [µg/mL] | MIC (CLSI Ref) (E. coli strains; E. coli strain CDC Carba36) [µg/mL] | MIC (CLSI Ref) (E. coli strains; [1]) [µg/mL] | MIC (CLSI Ref) (E. coli strains; [2]) [µg/mL] | MIC (CLSI Ref) (E. coli strains; [3]) [µg/mL] | MIC (CLSI Ref) (E. coli strains; [4]) [µg/mL] | MIC (CLSI Ref) (E. coli strains; [5]) [µg/mL] | MIC (CLSI Ref) (E. coli strains; [6]) [µg/mL] | MIC (CLSI Ref) (E. coli strains; [7]) [µg/mL] | MIC (CLSI Ref) (E. coli strains; [8]) [µg/mL] | MIC (CLSI Ref) (E. coli strains; [9]) [µg/mL] | MIC (CLSI Ref) (E. coli strains; [10]) [µg/mL] | MIC (CLSI Ref) (E. coli strains; [11]) [µg/mL] | MIC (CLSI Ref) (E. coli strains; [12]) [µg/mL] | Effect of resazurin present during incubation on viable bacteria (BacTiter-Glo luminescence) (Bacteria) | MIC (P. aeruginosa; P. aeruginosa Strain 1, growth check value 2.18, 4 hours at 35° C., read-out: MIC) [µg/mL] | MIC (P. aeruginosa; P. aeruginosa Strain 2, no reliable MIC at growth checkpoint value 1.13, read-out: expected MIC) [µg/mL] |
| --- | --- | --- | --- | --- | --- | --- | --- | --- | --- | --- | --- | --- | --- | --- | --- | --- | --- |
| Colistin [CST] | 0.12 | 0.25 | 0.12 | 0.12 | 0.25 | 0.25 | 0.12 | 0.12 | 0.12 | 0.5 | 0.25 | 0.5 | 0.25 | 0.25 | – | – | – |

Reference: patent US12203124B2, “Methods for improved rapid antimicrobial susceptibility testing” (priority 2016, dated 2025)
